These results are taken from US20050010048A1 (published 2005).

Where a name gives a salt, the structure may show the parent alone.

Usually melting point stands for the temperature of the solid-liquid transition. Compound `O=C(c1cc(Cc2ccccc2)cc(Cn2ccnc2)c1)c1cc(Cl)c2cccnc2c1O` (as salt: TFA) came in with a melting point of 148 to 150 °C.
Consider `Cc1cc(C(=O)c2cccc(Cc3ccccc3)c2)c(O)c2ncccc12`, for which the melting point fell in the range of 123 to 124 °C.
